According to paper PMC7404270, “Biological Activities of Cyclic and Acyclic B-Type Laxaphycins in SH-SY5Y Human Neuroblastoma Cells” (Marine Drugs, 2020):
Starred links: 1 amine or outer side, 2 acyl side, 3 side chain; linkers in the order of their positions; H or OH if unused. Non-standard residues stand in square brackets, D forms with d. Residues, ends and D or L forms follow the SMILES beside them. dβ3hGly(nHeptyl) = CCCCCCC[C@H](CC(=O)[*:2])N[*:1]; dAsn(3R-OH) = NC(=O)[C@H](O)[C@@H](N)C(=O)O; dLeu(3S-OH) = CC(C)[C@H](O)[C@@H](N)C(=O)O; Hyp = O=C(O)[C@@H]1C[C@@H](O)CN1; NMeI = CC[C@H](C)[C@H](NC)C(=O)O

Assays:
[1] = test system: SH-SY5Y human neuroblastoma cells; test: LDH cytotoxicity assay (cell viability); type: cell-based; conditions: 24 h, 0.001–10 µM
Procedure: (§1) SH-SY5Y human neuroblastoma cell line was obtained from American Type Culture Collection (ATCC), number CRL2266. Cells were cultured in Dulbecco´s modified Eagle´s medium: Nutrient Mix F-12 (DMEM/F-12) with 10% fetal bovine serum (FBS), 1% glutamax, 100 U/mL penicillin and 100 µg/mL streptomycin. Cells were maintained at 37 °C in a humidified atmosphere of 5% CO2 and 95% air and dissociated weekly using 0.05% trypsin/EDTA. All the reagents were obtained from Thermo Fischer Scientific.
Cell viability was assessed with the LDH test. Cells were seeded in 96-well plates and exposed to different compound concentrations (0.001–10 µM). Cells were incubated with compounds at 37 °C in humidified 5% CO2/95% air atmosphere for 24 h. Quillaja bark saponin was used as cellular death control. Then, cell medium was collected and LDH release was evaluated. Pierce^TM LDH-Cytotoxicity Assay Kit (Thermo Fisher Scientific) was used for LDH determination. Absorbance was measured at 490 nm to determine LDH release to the medium. Experiments were carried out in triplicate at least three independent times.

[2] = test system: SH-SY5Y human neuroblastoma cells; test: MTT cell metabolic activity assay; type: cell-based; conditions: 24 h, 0.001–10 µM, absorbance 595 nm, three experiments in triplicate
Procedure: as §1
The effect of laxaphycins on cell metabolic activity was evaluated by MTT (3-(4, 5-dimethyl thiazol-2-yl)-2, 5-diphenyl tetrazolium bromide) assay. SH-SY5Y cells were cultured in 96-well plates and treated with compounds at concentrations ranging from 0.001 to 10 µM for 24 h. Next, cells were rinsed three times and incubated for 1 h with MTT (500 µg/mL) dissolved in saline buffer. MTT excess was washed and cells were disaggregated with 5% sodium dodecyl sulfate. Absorbance of the colored formazan salt was measured at 595 nm in a spectrophotometer plate reader. Cell death control signal was subtracted from the other data.

[3] = test system: SH-SY5Y human neuroblastoma cells; test: Annexin V-FITC / propidium iodide flow cytometry; type: cell-based; conditions: 24 h, 1 at 0.3 µM; for Cell survival (flow cytometry): 2 at 0.15 µM (MTT IC50 values); for Apoptotic cells (early and late, Annexin V positive): 2 at 0.15 µM, STS at 0.01 µM, percentage of total cells, mean ± SEM of three experiments
Procedure: The Annexin V-FITC Apoptosis Detection Kit was used to determine the cell death produced by compounds as previously described. SH-SY5Y cells were seeded in 12-well plates at 1 × 10^6 per well and incubated for 24 h with laxaphycins. Then, cells were washed with PBS and resuspended in Annexin binding buffer containing Annexin V-FITC and PI. Cells were incubated for 15 min at room temperature, resuspended in PBS and filtered. The fluorescence was determined by flow cytometry using the ImageStreamMKII (Amnis Corporation, Luminex Corp, Austin, TX, USA). 10,000 events were analyzed with IDEAS Application 6.0 software (Amnis Corporation, Luminex Corp, Austin, TX, USA). STS (Sigma Aldrich) at 0.01 µM was used as control in this assay.

caspase 3 = test: Caspase 3 activity in cell lysates (EnzCheck kit); type: cell-based, human; conditions: SH-SY5Y cells, 24 h; 1 at 0.3 µM, 2 at 0.15 µM
Procedure: The detection of caspase 3 activity was carried out with the EnzCheck® Caspase-3 Assay Kit. Neuroblastoma cells were cultured in 12-well plates at 1 × 10^6 cells per well and treated with compounds. After 24 h, cells were lysed and an aliquot was collected to quantify protein concentration by the Bradford method. Then, the assay was performed following manufacturer’s instructions. Briefly, 50 µL of each sample were mixed with equal volume of Z-DEVD-AMC substrate and incubated for 30 min at room temperature. Then, fluorescence at 342 nm excitation and 441 nm emission was measured. Caspase 3 activity data were corrected by protein concentration values. STS (0.01 µM) was used as positive control.

mTOR = test: Western blot, mTOR activation (phosphorylated/total); type: cell-based, human; conditions: SH-SY5Y cells, 24 h; Rap 0.1 µM
Procedure: (§2) SH-SY5Y cells were seeded in 12-well plates and treated with laxaphycins for 24 h. Next, cells were washed with PBS and lysis buffer (50mM Tris HCl, 150 mM NaCl, 1mM EDTA and 1% Triton x-100, supplemented with a complete phosphatase/protease inhibitor cocktail) was added to each well. Cells were scrapped, sonicated and centrifuged at 13,000 rpm at 4 °C for 20 min.
(§3) In both cases, the supernatant was collected as the cytosolic fraction and quantified with the Bradford method. Samples containing 15 µg were used for electrophoresis, resolved in 4–20% sodium dodecyl sulphate polyacrylamide gel (Biorad, Madrid, Spain). Proteins were transferred to PVDF membranes (Merck Millipore) with a Trans-Blot® semi-dry transfer cell (Biorad). Membrane blocking and antibody incubation was performed in Snap i.d. system (Merck Millipore). Protein bands were detected with Supersignal West Pico Luminiscent Substrate and Supersignal West Femto Maximum Sensitivity Substrate (Thermo Fisher Scientific). Chemiluminiscence was determined with Diversity GeneSnap system and software (Syngene). LC3 II/I was detected with the primary antibody anti-LC3 II/I (1:1000, Abcam), the primary antibody anti-pmTOR (Ser2448) (1:1000, Merck Millipore) was used to recognize phospho-mTOR and the total levels of the kinase were determined with anti-mTOR antibody (1:10000, Abcam), beclin-1 was detected with anti-beclin-1 primary antibody (1:1000, Merck Millipore), p62 was quantified with anti-p62 antibody (1:1000, Merck Millipore), anti-phospho-p70 S6 kinase (Thr389) (1:1000, Merck Millipore) was used to detect phospho- p70 and the total levels were quantified using anti-p70 S6 kinase antibody (1:1000, Merck Millipore), anti-phospho-AMPK (Thr172) (1:500, Merck Millipore) was used to recognize the phosphorylated state of the kinase, and the total expression of the enzyme was detected with anti-AMPK antibody (1:500, Merck Millipore). Protein levels were normalized using β-Actin (1:20,000, Millipore). Baf A1 (0.001 µM), Rap (0.1 µM) and Comp C (1 µM) were used as controls for autophagic flux measurements. […]

[4] = test system: panel of cancer cell lines; conditions: read-out: IC50, cytotoxic effects against a panel of cancer cell lines; previous works; cited from earlier work
Text: (§4) Moreover, this study is the first description of the effects on mitochondria and autophagy produced by acyclic B-type laxaphycins, and also confirms that the toxic effects of cyclic laxaphycins B are mediated by an apoptotic process. […] Our results in neuroblastoma cells are in ag ...

[5] = test system: drug-sensitive and multidrug-resistant tumor cell lines; set-up: method as in PMID 17323939; conditions: previous works; read-out: IC50, toxicity towards drug-sensitive and multidrug-resistant tumor cell lines; cited from earlier work
Text: as §4

p70 S6 kinase = test: Western blot, p70 S6 kinase activation (phosphorylated/total); type: cell-based, human; conditions: SH-SY5Y cells, 24 h; one range given for the three compounds together
Procedure: as §2, §3

Compound | Cytotoxicity / cell viability (LDH test), in words [1] | IC50 [2] [nM] | Cell survival (flow cytometry) [3] | Apoptotic cells (early and late, Annexin V positive) [3] | Increase in caspase 3 activity (caspase 3) | mTOR activation (phospho/total), in words (mTOR) | IC50 [4] [nM] | IC50 [5] [nM] | p70 S6 phosphorylation (p70 S6 kinase)
CCCCCCC[C@@H]1CC(=O)N[C@@H](C(C)C)C(=O)N[C@H]([C@@H](O)C(C)C)C(=O)N[C@@H](C)C(=O)N[C@H]([C@@H](O)C(C)C)C(=O)N[C@@H](CCC(N)=O)C(=O)N(C)[C@@H]([C@@H](C)CC)C(=O)N[C@H]([C@@H](O)C(N)=O)C(=O)N[C@@H]([C@@H](C)O)C(=O)N2CCC[C@H]2C(=O)N[C@H](CC(C)C)C(=O)N[C@@H]([C@@H](C)O)C(=O)N1 [compound 1, laxaphycin B] (cyclo([dβ3hGly(nHeptyl)]V[dLeu(3S-OH)]A[dLeu(3S-OH)]Q[NMeI][dAsn(3R-OH)]TP[dL]T)) | cytotoxic to neuroblastoma cells | 300 | around 60 % of control cells | 50.4% ± 4.8% | about 20 % of control cells | did not affect to the protein expression | < 2000 | ~1000 | –
CCCCCCC[C@@H]1CC(=O)N[C@@H](C(C)C)C(=O)N[C@H]([C@@H](O)C(C)C)C(=O)N[C@@H](C)C(=O)N[C@H]([C@@H](O)C(C)C)C(=O)N[C@@H](CCC(N)=O)C(=O)N(C)[C@@H]([C@@H](C)CC)C(=O)N[C@H]([C@@H](O)C(N)=O)C(=O)N[C@@H]([C@@H](C)O)C(=O)N2C[C@H](O)C[C@H]2C(=O)N[C@H](CC(C)C)C(=O)N[C@@H]([C@@H](C)O)C(=O)N1 [compound 2, laxaphycin B3] (cyclo([dβ3hGly(nHeptyl)]V[dLeu(3S-OH)]A[dLeu(3S-OH)]Q[NMeI][dAsn(3R-OH)]T[Hyp][dL]T)) | cytotoxic to neuroblastoma cells | 150 | around 60 % of control cells | 46.4% ± 4.8% | about 20 % of control cells | did not affect to the protein expression | – | ~1000 | 53.5%–78.6%
